Experimental data published in patent US20250042922A1, “KRAS MODULATING COMPOUNDS” (priority 2023, published 2025).
Read-outs that look alike come from different tables or passages of the source.

Columns and labels:
[1] = target: GDP-loaded wild-type KRAS (WT) (Homo sapiens, UniProt P01116); test: KRAS (GDP) biochemical TR-FRET probe displacement assay, WT; format: binding; details: 2 hours
Experimental: (§1) Compounds are tested for binding to GDP-loaded wild-type KRAS (WT), KRAS-G12C, KRAS-G12D, and KRAS-G12V in a 384-well assay format using a TR-FRET probe displacement assay in buffer consisting of 50 mM Hepes (pH 7.4), 150 mM NaCl, 5 mM MgCl2 and 0.005% Tween-20. […] Compounds are serially diluted (1:3) in DMSO. The LabCyte ECHO Acoustic dispenser was used to pre-spot the assay plates (384-well Non-Binding Surface plates, Corning, Catalog #3824) with 50 nL of compound. 5 μL of 2X enzyme concentration is added to the pre-spotted plates and incubated for 30 minutes before adding 5 μL of 2X concentration of Eu-streptavidin and Cy-5 labelled probe (10 μL final reaction volume). The plates are incubated at room temperature for 2 hours before measuring TR-FRET ratio (665 nm/615 nm) on the Envision multimode plate reader. The ratios are normalized to a positive (saturating concentration of known inhibitor) and negative (DMSO) control and plotted against the log of compound concentration.

GDP-loaded KRAS-G12C = GDP-loaded KRAS-G12C (Homo sapiens, UniProt P01116, G12C); test: KRAS (GDP) biochemical TR-FRET probe displacement assay, G12C; format: binding; details: 2 hours
Experimental: as §1

GDP-loaded KRAS-G12V = GDP-loaded KRAS-G12V (Homo sapiens, UniProt P01116, G12V); test: KRAS (GDP) biochemical TR-FRET probe displacement assay, G12V; format: binding; details: 2 hours
Experimental: as §1

GDP-loaded KRAS-G12D = GDP-loaded KRAS-G12D (Homo sapiens, UniProt P01116, G12D); test: KRAS (GDP) biochemical TR-FRET probe displacement assay, G12D; format: binding; details: 2 hours
Experimental: as §1

[2] = test system: cellular pERK in Kuramochi (WT KRAS) cells; test: Cell based pERK assay, Kuramochi; details: read-out: Kuramochi pERK EC50
Summary of the method: (§2)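 Cells seeded overnight (5000 AsPC-1 or 7500 others per well; RPMI/10% FBS, DMEM/10% FBS for MIA-PaCa-2), treated with 1:3 serial dilutions for 2 h at 37 °C. Phospho-ERK1/2 (Thr202/Tyr204) measured by HTRF (665/615 nm) after overnight lysis, normalized to DMSO and saturating known-inhibitor controls.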

[3] = test system: cellular pERK in MIA-PaCa-2 (KRAS-G12C) cells; test: Cell based pERK assay, MIA-PaCa-2; details: Homo sapiens, read-out: MIAPaCa2 pERK EC50
Summary of the method: as §2

[4] = test system: cellular pERK in NCI-H441 (KRAS-G12V) cells; test: Cell based pERK assay, NCI-H441; details: Homo sapiens, read-out: H441 PERK EC50
Summary of the method: as §2

[5] = test system: cellular pERK in ASPC-1 (KRAS G12D) cells; test: Cell based pERK assay, ASPC-1; details: Homo sapiens, read-out: AsPC1 pERK EC50
Summary of the method: as §2

[6] = Kuramochi (WT KRAS), 2 hours incubation, HTRF phospho-ERK1/2
[7] = MIA-PaCa-2 (KRAS-G12C), 2 hours incubation, HTRF phospho-ERK1/2
[8] = NCI-H441 (KRAS-G12V), 2 hours incubation, HTRF phospho-ERK1/2
[9] = ASPC1, ASPC-1 (KRAS G12D), 2 hours incubation, HTRF phospho-ERK1/2

GDP-loaded KRAS-G12D, sequence (P01116 1-188 isoform P01116-2 G12D): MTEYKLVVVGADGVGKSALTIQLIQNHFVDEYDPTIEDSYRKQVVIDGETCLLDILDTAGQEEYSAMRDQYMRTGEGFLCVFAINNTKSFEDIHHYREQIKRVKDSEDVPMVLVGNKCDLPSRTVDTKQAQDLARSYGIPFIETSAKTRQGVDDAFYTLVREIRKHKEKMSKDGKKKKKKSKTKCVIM
GDP-loaded wild-type KRAS (WT), sequence (P01116 1-188 isoform P01116-2): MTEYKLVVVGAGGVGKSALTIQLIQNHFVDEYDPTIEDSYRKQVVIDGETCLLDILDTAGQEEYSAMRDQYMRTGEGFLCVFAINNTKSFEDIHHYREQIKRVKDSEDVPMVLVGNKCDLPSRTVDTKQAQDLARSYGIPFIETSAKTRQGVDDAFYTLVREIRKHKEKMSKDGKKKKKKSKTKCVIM
GDP-loaded KRAS-G12C, sequence (P01116 1-188 isoform P01116-2 G12C): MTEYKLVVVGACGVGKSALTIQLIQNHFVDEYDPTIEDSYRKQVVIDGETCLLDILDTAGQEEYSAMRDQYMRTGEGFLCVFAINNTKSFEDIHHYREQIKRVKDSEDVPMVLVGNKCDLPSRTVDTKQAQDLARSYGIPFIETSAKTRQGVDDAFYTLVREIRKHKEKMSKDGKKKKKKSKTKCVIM
GDP-loaded KRAS-G12V, sequence (P01116 1-188 isoform P01116-2 G12V): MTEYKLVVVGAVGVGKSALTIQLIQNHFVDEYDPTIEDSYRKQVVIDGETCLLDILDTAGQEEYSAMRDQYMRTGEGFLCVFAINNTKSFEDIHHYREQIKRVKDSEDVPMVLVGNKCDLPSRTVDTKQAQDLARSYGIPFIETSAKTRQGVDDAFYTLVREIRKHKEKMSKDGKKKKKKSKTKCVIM

SMILES	IC50 [1] [nM]	IC50 (GDP-loaded KRAS-G12C) [nM]	IC50 (GDP-loaded KRAS-G12V) [nM]	IC50 (GDP-loaded KRAS-G12D) [nM]	EC50 [2, 6] [nM]	EC50 [3, 7] [nM]	EC50 [4, 8] [nM]	EC50 [5, 9] [nM]	EC50 ([2]; 2 h) [nM]	EC50 ([3]; MIA PaCa-2, 2 h) [nM]	EC50 ([4]; NCI-H441, 2 h) [nM]	EC50 ([5]; ASPC1, 2 h) [nM]
Cc1c(F)c(N)cc(-c2nc3c4c(nc(OC[C@@]56CCCN5C[C@H](F)C6)nc4c2F)N2C[C@@]4(F)CC[C@](F)(N4)[C@H]2CCC3)c1C(F)(F)F [Example 4-4]	25.8	46.7	45.1	> 100	15.4	59.4	884	175	–	–	–	–
N#Cc1c(N)sc2c(F)ccc(-c3nc4c5c(nc(OCC67CCCN6CCC7)nc5c3F)N3C[C@@]5(F)CC[C@](F)(N5)[C@H]3CCC4)c12 [Example 4-7, 2-amino-7-fluoro-4-((6aR,7R,10S)-1,7,10-trifluoro-13-((tetrahydro-1H-pyrrolizin-7a(5H)-yl)methoxy)-5,6,6a,7,8,9,10,11-octahydro-4H-3,11a,12,14,15-pentaaza-7,10-methanocyclohepta[4,5]cycloocta[1,2,3-de]naphthalen-2-yl)benzo[b]thiophene-3-carbonitrile]	10.1	28.5	44.1	86.8	15.6	59.8	–	840	–	–	–	–
C#Cc1c(F)ccc2cc(N)cc(-c3nc4c5c(nc(OC[C@@H]6CCCN6C)nc5c3F)N3C[C@@]5(F)CC[C@](F)(N5)[C@H]3CCC4)c12 [Example 4-8, 5-ethynyl-6-fluoro-4-((6aR,7R,10S)-1,7,10-trifluoro-13-(((S)-1-methylpyrrolidin-2-yl)methoxy)-5,6,6a,7,8,9,10,11-octahydro-4H-3,11a,12,14,15-pentaaza-7,10-methanocyclohepta[4,5]cycloocta[1,2,3-de]naphthalen-2-yl)naphthalen-2-amine]	6.19	13.2	34.7	57.8	5.11	6.73	–	169	–	–	–	–
C[C@H]1Cc2nc(-c3cc(O)cc4ccc(F)c(F)c34)c(F)c3nc(OCC45CCCN4CCC5)nc(c23)N2C[C@@]3(F)CC[C@](F)(N3)[C@H]12 [Example 4-12, 5,6-difluoro-4-((5S,5aS,6R,9S)-1,6,9-trifluoro-5-methyl-12-((tetrahydro-1H-pyrrolizin-7a(5H)-yl)methoxy)-4,5,5a,6,7,8,9,10-octahydro-3,10a,11,13,14-pentaaza-6,9-methanonaphtho[1,8-ab]eptalene-2-yl)naphthalen-2-ol]	0.086	0.172	0.353	1.16	–	–	–	–	1.71	0.944	3.7	29
Cc1c(F)c(N)cc(-c2nc3c4c(nc(OCC56CCCN5CCC6)nc4c2F)N2C[C@@]4(F)CC[C@](F)(N4)[C@@H]2[C@@H](C)C3)c1C(F)(F)F [Example 4-13, 2-fluoro-3-methyl-5-((5S,5aS,6R,9S)-1,6,9-trifluoro-5-methyl-12-((tetrahydro-1H-pyrrolizin-7a(5H)-yl)methoxy)-4,5,5a,6,7,8,9,10-octahydro-3,10a,11,13,14-pentaaza-6,9-methanonaphtho[1,8-ab]heptalen-2-yl)-4-(trifluoromethyl)aniline]	0.411	3.81	8.04	20.2	2.77	5.66	18.3	109	–	–	–	–
C[C@H]1Cc2nc(-c3cc(N)cc(Cl)c3C(F)(F)F)c(F)c3nc(OCC45CCCN4CCC5)nc(c23)N2C[C@@]3(F)CC[C@](F)(N3)[C@H]12 [Example 4-17, 3-chloro-5-((8S,8aS,9R,12S)-4,9,12-trifluoro-8-methyl-2-((tetrahydro-1H-pyrrolizin-7a(5H)-yl)methoxy)-7,8,8a,9,10,11,12,13-octahydro-1,3,6,13a,14-pentaaza-9,12-methanonaphtho[1,8-ab]heptalen-5-yl)-4-(trifluoromethyl)aniline]	0.161	0.479	0.865	2.79	4.32	1.72	–	38	–	–	–	–
CCC1CCCc2cc(N)cc(-c3nc4c5c(nc(OCC67CCCN6CCC7)nc5c3F)N3C[C@@]5(F)CC[C@](F)(N5)[C@H]3CCC4)c21 (stereo partly drawn) [Example 4-24, 5-ethyl-4-((6aR,7R,10S)-1,7,10-trifluoro-13-((tetrahydro-1H-pyrrolizin-7a(5H)-yl)methoxy)-5,6,6a,7,8,9,10,11-octahydro-4H-3,11a,12,14,15-pentaaza-7,10-methanocyclohepta[4,5]cycloocta[1,2,3-de]naphthalen-2-yl)-5,6,7,8-tetrahydronaphthalen-2-amine]	> 100	> 100	> 100	> 100	312	560	–	> 1000	–	–	–	–
C#Cc1c(F)ccc2cc(N)cc(-c3nc4c5c(nc(OC[C@@]67CCCN6[C@H](COC(C(F)(F)F)(C(F)(F)F)C(F)(F)F)CC7)nc5c3F)N3C[C@@]5(F)CC[C@](F)(N5)[C@H]3CCC4)c12 [Example 4-28, 5-ethynyl-6-fluoro-4-((6aR,7R,10S)-1,7,10-trifluoro-13-(((3S,7aS)-3-(((1,1,1,3,3,3-hexafluoro-2-(trifluoromethyl)propan-2-yl)oxy)methyl)tetrahydro-1H-pyrrolizin-7a(5H)-yl)methoxy)-5,6,6a,7,8,9,10,11-octahydro-4H-3,11a,12,14,15-pentaaza-7,10-methanocyclohepta[4,5]cycloocta[1,2,3-de]naphthalen-2-yl)naphthalen-2-amine]	4.98	7.3	44.8	59.4	7.5	5.6	–	117	–	–	–	–
C#Cc1c(F)ccc2cccc(-c3nc4c5c(nc(OCC67CCCN6CCC7)nc5c3F)N3C[C@@]5(F)CC[C@](F)(N5)[C@H]3CCC4)c12 [Example 4-29, (6aR,7R,10S)-2-(8-ethynyl-7-fluoronaphthalen-1-yl)-1,7,10-trifluoro-13-((tetrahydro-1H-pyrrolizin-7a(5H)-yl)methoxy)-5,6,6a,7,8,9,10,11-octahydro-4H-3,11a,12,14,15-pentaaza-7,10-methanocyclohepta[4,5]cycloocta[1,2,3-de]naphthalene]	5.99	8.68	24.8	38.1	6.37	12.8	–	305	–	–	–	–
C#Cc1c(F)ccc2cc(N)cc(-c3nc4c5c(nc(OC[C@]6(C)CN(C)CC/C6=C\F)nc5c3F)N3C[C@@]5(F)CC[C@](F)(N5)[C@@H]3[C@@H](C)C4)c12 [Example 4-39, 5-ethynyl-6-fluoro-4-((5S,5aS,6R,9S)-1,6,9-trifluoro-12-(((S,E)-4-(fluoromethylene)-1,3-dimethylpiperidin-3-yl)methoxy)-5-methyl-4,5,5a,6,7,8,9,10-octahydro-3,10a,11,13,14-pentaaza-6,9methanonaphtho[1,8-ab]heptalen-2-yl)naphthalen-2-amine]	–	0.383	0.583	1.12	3.76	0.253	0.689	6.04	–	–	–	–
C[C@H]1Cc2nc(-c3cc(N)cc4ccc(F)c(F)c34)c(F)c3nc(OCC45CCCN4CCC5)nc(c23)N2C[C@@]3(F)CC[C@](F)(N3)[C@H]12 [Example 5-1, 5,6-difluoro-4-((5S,5aS,6R,9S)-1,6,9-trifluoro-5-methyl-12-((tetrahydro-1H-pyrrolizin-7a(5H)-yl)methoxy)-4,5,5a,6,7,8,9,10-octahydro-3,10a,11,13,14-pentaaza-6,9-methanonaphtho[1,8-ab]heptalen-2-yl)naphthalen-2-amine]	0.271	1.71	7.42	16	2.2	2.34	–	62.5	–	–	–	–
